From article PMC4440444 (Theranostics, 2015) come the findings set out here.

The test system of this experiment is glioma. Format: in vivo, human. The note with it: for T/NTmax (maximum target to non-target ratio): brain PET/CT; for SUVmax in glioma: brain PET/CT before surgery.

Read-outs that look alike come from different tables or passages of the source.

As to ^18F-FDG, the “T/NTmax in glioma, mean ± SD” value (eight glioma patients) worked out at 0.86 ± 0.41. For the setting “eight glioma patients, range”, the “SUVmax in glioma tissues, range” value is 3.50-12.27. Besides, the “T/NTmax in glioma, range” value (eight glioma patients, range) is listed as 0.35-1.59. In addition, the “T/NTmax (maximum target to non-target ratio)” value is, setting by setting: (patient No. 1, WHO grade II) 0.72; (patient No. 2, WHO grade II) 0.35; (patient No. 3, WHO grade III) 0.61; (patient No. 4, WHO grade IV) 0.80; (patient No. 5, WHO grade IV) 0.72; (patient No. 6, WHO grade IV) 0.78. Further, the “T/NTmax (maximum target to non-target ratio)” value (patient No. 8, WHO grade IV) is listed as 1.59. For the same substance, the SUVmax in glioma is, setting by setting: (patient No. 1, WHO grade II) 7.40; (patient No. 2, WHO grade II) 3.50; (patient No. 3, WHO grade III) 7.27; (patient No. 4, WHO grade IV) 12.27; (patient No. 5, WHO grade IV) 5.76; (patient No. 6, WHO grade IV) 9.87. Also, the SUVmax in glioma is, setting by setting: (patient No. 7, WHO grade IV) 8.47; (patient No. 8, WHO grade IV) 4.20.
